Columns and labels:
Cytochrome P450 2D6 = Cytochrome P450 2D6 (Homo sapiens, UniProt P10635); assay: Inhibition of recombinant human CYP2D6 using AMMC as substrate preincubated for 30 mins followed by substrate addition measured after 45 mins by fluorescence based assay; type: ADME
Mu-type opioid receptor = Mu-type opioid receptor (Homo sapiens, UniProt P35372); assay: Inhibition of mu opioid receptor (unknown origin)
[1] = target: T1, Muscarinic acetylcholine receptor M2 (Homo sapiens, UniProt P08172); assay: Inhibition of M2 mAChR receptor (unknown origin)
T1 sequence (P08172 whole entry): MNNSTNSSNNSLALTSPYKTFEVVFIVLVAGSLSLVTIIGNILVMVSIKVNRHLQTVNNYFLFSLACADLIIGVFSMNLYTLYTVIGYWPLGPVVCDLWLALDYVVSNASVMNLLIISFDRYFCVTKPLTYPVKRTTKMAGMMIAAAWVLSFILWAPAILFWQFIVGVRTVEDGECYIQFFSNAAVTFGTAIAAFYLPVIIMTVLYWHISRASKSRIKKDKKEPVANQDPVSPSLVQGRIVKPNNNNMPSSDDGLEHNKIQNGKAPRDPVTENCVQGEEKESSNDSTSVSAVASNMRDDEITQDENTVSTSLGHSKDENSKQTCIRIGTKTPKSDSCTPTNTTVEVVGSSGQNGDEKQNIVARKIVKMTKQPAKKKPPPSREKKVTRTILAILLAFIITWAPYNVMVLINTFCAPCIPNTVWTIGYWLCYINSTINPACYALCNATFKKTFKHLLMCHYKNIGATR

D(2) dopamine receptor = D(2) dopamine receptor (Homo sapiens, UniProt P14416); assay: Inhibition of dopamine D2 receptor (unknown origin)
[2] = Permeability of compound at pH 7.4 incubated for 4 hrs by PAMPA assay; type: ADME; conditions: read-out: permeability
[3] = target: Voltage-gated inwardly rectifying potassium channel KCNH2 (Homo sapiens, UniProt Q12809); assay: Inhibition of human ERG by [3H]]Astemizole binding assay; type: toxicity
[4] = Metabolic stability in human liver microsomes assessed compound remaining measured after 10 mins in presence of NADPH; type: ADME, Microsome; conditions: read-out: Stability
[5] = target: Neuronal acetylcholine receptor subunit alpha-7 (Homo sapiens, UniProt P36544); assay: Inhibition of alpha7 nicotinic acetylcholine receptor (unknown origin)
[6] = Metabolic stability in mouse liver microsomes assessed compound remaining measured after 10 mins in presence of NADPH; type: ADME, Microsome; conditions: read-out: Stability
[7] = Antagonist activity at mAChR (unknown origin) expressed in CCRF-CEM cells assessed as inhibition of calcium release by calcium flux assay; type: cell-based; conditions: Homo sapiens
[8] = Metabolic stability in rat liver microsomes assessed compound remaining measured after 10 mins in presence of NADPH; type: ADME, Microsome; conditions: read-out: Stability
[9] = target: Kappa-type opioid receptor (Homo sapiens, UniProt P41145); assay: Inhibition of kappa opioid receptor (unknown origin)
[10] = Permeability of compound at pH 5.5 incubated for 4 hrs by PAMPA assay; type: ADME; conditions: read-out: permeability
[11] = Antagonist activity at human CXCR4 receptor expressed in CCRF-CEM cells assessed as inhibition of CXCL12-induced calcium release by calcium flux assay; type: cell-based
[12] = target: T2, Alpha-2C adrenergic receptor (Homo sapiens, UniProt P18825); assay: Inhibition of alpha 2C adrenergic receptor (unknown origin)
T2 sequence (P18825 whole entry): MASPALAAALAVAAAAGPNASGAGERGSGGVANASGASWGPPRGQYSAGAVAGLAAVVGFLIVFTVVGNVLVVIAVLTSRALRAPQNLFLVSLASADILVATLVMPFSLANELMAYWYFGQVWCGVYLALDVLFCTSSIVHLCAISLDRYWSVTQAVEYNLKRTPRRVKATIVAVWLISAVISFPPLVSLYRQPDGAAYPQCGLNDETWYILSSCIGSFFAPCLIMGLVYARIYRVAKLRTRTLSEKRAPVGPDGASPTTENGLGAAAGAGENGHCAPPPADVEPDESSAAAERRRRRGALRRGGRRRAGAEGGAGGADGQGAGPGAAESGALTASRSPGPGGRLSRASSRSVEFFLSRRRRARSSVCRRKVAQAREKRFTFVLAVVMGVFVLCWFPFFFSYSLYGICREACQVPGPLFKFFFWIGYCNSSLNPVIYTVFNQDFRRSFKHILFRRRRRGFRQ

[13] = target: T3, Alpha-2A adrenergic receptor (Homo sapiens, UniProt P08913); assay: Inhibition of alpha 2A adrenergic receptor (unknown origin)
T3 sequence (P08913 whole entry): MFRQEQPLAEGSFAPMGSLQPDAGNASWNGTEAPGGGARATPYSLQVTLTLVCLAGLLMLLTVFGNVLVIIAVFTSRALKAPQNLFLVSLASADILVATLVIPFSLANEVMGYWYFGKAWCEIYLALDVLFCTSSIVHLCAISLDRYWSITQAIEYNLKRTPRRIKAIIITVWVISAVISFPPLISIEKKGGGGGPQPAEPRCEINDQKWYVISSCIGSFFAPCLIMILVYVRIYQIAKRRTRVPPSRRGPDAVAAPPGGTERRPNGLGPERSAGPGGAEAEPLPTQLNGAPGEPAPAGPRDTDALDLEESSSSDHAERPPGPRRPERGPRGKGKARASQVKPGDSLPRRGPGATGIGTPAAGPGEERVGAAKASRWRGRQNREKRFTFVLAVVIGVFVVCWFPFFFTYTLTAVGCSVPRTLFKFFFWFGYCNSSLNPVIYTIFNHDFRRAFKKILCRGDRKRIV

[14] = tested on: Human immunodeficiency virus 1; assay: Antiviral activity against HIV-1 NL4-3(X4) pseudovirus infected in human TZM-bl cells assessed as reduction in viral infectivity measured after 48 hrs of postinfection by luminescence assay; type: functional, organism-based; conditions: Human immunodeficiency virus 1, NL4-3(X4)
[15] = Cytotoxicity against human TZM-bl cells assessed as reduction in cell viability incubated for 4 hrs by […] assay; type: toxicity, cell-based; conditions: read-out: TC50
[16] = tested on: Human immunodeficiency virus 1; assay: Antiviral activity against HIV-1 Z1800M E4.02 (R5) pseudovirus infected in human TZM-blcells assessed as reduction in viral infectivity measured after 48 hrs of postinfection by luminescence assay; type: functional, organism-based; conditions: Human immunodeficiency virus 1, Z1800M E4.02 (R5), TZM-bl
[17] = Drug concentration in mouse plasma at 30 mg/kg, po measured at 12 hrs by LC-MS analysis; type: ADME, organism-based
[18] = Volume of distribution in mouse at 3 mg/kg, measured at 24 hrs by LC-MS analysis; type: ADME, organism-based; conditions: in vivo
[19] = Half life in mouse at 3 mg/kg, iv measured after 8 hrs by LC-MS/MS analysis; type: ADME, organism-based; conditions: in vivo
[20] = Oral bioavailability in mouse at 3 mg/kg measured at 24 hrs by LC-MS/MS analysis; type: ADME, organism-based; conditions: in vivo
[21] = AUC(0 to 8 h) in mouse plasma at 30 mg/kg, po measured at 24 hrs by LC-MS/MS analysis; type: ADME, organism-based; set-up: route oral, time 24 hrs, dose 30 mg/kg; conditions: in vivo
[22] = AUC(0 to 8 h) in mouse plasma at 3 mg/kg, iv measured at 24 hrs by LC-MS/MS analysis; type: ADME, organism-based; set-up: route intravenous, time 24 hrs, dose 3 mg/kg; conditions: in vivo
[23] = Oral bioavailability in mouse at 30 mg/kg measured at 24 hrs by LC-MS/MS analysis; type: ADME, organism-based; conditions: in vivo
[24] = AUC(0 to 8 h)in mouse plasma at 3 mg/kg, po measured at 24 hrs by LC-MS/MS analysis; type: ADME, organism-based; set-up: route oral, dose 3 mg/kg, time 24 hrs; conditions: in vivo

Voltage-gated inwardly rectifying potassium channel KCNH2, sequence (Q12809 whole entry): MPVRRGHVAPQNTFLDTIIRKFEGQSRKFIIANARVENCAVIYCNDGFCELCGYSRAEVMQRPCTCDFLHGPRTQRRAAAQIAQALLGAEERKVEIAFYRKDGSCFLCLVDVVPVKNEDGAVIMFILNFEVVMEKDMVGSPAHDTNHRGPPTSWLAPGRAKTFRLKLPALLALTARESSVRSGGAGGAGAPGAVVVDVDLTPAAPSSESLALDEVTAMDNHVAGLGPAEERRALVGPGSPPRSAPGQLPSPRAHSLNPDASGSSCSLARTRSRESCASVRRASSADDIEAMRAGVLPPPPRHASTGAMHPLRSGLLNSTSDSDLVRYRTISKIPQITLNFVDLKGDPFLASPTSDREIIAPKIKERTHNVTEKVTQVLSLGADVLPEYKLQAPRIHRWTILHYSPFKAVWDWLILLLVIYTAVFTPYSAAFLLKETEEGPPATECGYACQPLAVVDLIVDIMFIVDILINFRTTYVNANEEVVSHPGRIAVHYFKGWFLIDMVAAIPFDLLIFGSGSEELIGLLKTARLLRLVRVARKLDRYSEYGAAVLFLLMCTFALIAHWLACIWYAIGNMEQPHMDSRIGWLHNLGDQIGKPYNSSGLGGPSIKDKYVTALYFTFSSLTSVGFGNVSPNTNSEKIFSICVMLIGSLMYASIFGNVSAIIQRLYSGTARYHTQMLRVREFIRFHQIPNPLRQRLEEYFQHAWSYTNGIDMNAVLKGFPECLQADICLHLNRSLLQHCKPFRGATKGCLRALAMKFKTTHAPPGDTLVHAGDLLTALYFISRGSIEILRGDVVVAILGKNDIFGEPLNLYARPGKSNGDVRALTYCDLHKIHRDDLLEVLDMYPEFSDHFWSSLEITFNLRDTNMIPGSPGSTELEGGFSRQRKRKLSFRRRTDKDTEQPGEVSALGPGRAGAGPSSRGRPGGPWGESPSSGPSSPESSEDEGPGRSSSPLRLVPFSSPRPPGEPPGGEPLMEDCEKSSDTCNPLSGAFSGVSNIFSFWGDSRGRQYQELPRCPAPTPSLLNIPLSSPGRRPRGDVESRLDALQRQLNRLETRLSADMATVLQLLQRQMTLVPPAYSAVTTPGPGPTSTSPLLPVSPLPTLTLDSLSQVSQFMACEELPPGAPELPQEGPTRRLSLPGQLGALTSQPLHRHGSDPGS
Kappa-type opioid receptor, sequence (P41145 whole entry): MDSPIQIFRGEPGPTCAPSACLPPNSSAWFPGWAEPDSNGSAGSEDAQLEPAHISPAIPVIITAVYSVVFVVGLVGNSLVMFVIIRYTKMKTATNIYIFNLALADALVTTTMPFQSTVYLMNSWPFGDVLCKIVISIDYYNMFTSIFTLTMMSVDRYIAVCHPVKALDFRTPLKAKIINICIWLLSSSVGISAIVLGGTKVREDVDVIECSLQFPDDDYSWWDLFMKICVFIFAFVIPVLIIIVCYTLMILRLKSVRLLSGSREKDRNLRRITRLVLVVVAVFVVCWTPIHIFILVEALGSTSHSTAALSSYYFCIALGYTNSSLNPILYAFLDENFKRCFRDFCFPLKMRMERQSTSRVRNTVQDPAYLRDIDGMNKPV
Neuronal acetylcholine receptor subunit alpha-7, sequence (P36544 whole entry): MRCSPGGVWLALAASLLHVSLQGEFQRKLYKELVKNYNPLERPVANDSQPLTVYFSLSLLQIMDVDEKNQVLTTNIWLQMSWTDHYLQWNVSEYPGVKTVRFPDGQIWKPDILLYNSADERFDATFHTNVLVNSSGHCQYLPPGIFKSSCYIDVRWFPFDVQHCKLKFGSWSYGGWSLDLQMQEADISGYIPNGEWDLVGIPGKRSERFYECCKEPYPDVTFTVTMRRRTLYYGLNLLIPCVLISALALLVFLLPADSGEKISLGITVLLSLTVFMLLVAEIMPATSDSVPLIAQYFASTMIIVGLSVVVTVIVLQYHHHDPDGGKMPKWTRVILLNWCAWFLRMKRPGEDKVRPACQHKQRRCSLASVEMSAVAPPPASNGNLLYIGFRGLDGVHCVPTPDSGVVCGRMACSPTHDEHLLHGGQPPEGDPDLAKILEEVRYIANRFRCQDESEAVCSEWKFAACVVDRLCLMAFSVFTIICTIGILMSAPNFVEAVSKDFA
Cytochrome P450 2D6, sequence (P10635 whole entry): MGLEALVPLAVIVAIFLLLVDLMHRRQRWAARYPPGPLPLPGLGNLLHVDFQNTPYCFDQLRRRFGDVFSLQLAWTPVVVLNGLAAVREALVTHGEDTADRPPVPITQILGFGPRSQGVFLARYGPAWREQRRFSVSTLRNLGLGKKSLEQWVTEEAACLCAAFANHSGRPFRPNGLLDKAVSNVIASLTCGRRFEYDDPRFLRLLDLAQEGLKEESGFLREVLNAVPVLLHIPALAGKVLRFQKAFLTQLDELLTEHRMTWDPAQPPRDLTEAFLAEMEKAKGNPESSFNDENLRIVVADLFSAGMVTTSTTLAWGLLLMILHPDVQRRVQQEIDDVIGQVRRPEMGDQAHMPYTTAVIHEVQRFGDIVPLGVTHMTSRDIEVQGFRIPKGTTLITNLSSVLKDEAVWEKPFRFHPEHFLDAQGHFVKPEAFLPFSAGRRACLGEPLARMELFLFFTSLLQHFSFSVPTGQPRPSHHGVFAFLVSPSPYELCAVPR
D(2) dopamine receptor, sequence (P14416 whole entry): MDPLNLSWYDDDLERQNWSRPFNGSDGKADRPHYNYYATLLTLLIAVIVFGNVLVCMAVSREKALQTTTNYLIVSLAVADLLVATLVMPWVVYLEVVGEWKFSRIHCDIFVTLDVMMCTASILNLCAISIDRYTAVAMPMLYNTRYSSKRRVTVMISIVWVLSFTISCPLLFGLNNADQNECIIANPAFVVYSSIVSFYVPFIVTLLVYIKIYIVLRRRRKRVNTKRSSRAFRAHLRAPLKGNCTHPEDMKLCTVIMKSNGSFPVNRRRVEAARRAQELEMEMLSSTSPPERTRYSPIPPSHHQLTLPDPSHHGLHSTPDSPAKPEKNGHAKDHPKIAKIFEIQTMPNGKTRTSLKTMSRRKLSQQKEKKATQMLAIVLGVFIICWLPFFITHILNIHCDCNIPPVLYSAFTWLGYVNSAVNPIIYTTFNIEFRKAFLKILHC
Mu-type opioid receptor, sequence (P35372 whole entry): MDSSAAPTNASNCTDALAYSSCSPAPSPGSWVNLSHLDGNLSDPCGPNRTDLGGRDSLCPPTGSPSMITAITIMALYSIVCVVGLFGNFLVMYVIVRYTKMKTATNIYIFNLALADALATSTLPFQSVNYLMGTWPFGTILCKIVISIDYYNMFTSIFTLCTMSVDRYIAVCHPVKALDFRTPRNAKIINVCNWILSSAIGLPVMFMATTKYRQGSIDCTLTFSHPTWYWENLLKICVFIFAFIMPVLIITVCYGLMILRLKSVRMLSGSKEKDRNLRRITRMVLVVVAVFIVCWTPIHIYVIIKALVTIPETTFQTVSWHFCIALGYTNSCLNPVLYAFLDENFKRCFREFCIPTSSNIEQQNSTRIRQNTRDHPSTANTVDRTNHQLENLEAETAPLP

| IC50 (Cytochrome P450 2D6) [µM] | IC50 (Mu-type opioid receptor) [µM] | IC50 [1] [µM] | IC50 (D(2) dopamine receptor) [µM] | Papp at 4 h [2] [×10⁻⁶ cm/s] | remaining at 10 min [4] [%] | IC50 [5] [µM] | remaining at 10 min [6] [%] | IC50 [7] [µM] | remaining at 10 min [8] [%] | IC50 [9] [µM] | Papp at 4 h [10] [×10⁻⁶ cm/s] | IC50 [11] [µM] | IC50 [12] [µM] | IC50 [13] [µM] | Structure (SMILES) | IC50 [3] [µM] | other results |
| --- | --- | --- | --- | --- | --- | --- | --- | --- | --- | --- | --- | --- | --- | --- | --- | --- | --- |
| > 20 | > 30 | > 30 | 9.8 | 2.4 | 100 | 17 | 69 | > 33 | 40 | 4.8 | 1.4 | 0.035 | 2.2 | – | c1cnc2c(c1)CN[C@@H](CN(CCCC1CCNCC1)[C@H]1CCCc3cccnc31)C2 | 9.3 | – |
| > 20 | 20 | > 30 | > 30 | 0.8 | 97 | > 30 | 35 | > 17 | 49 | 4.3 | 0.2 | 0.0072 | > 30 | > 30 | c1cnc2c(c1)CN[C@@H](CN(CCCCNC1CCOCC1)[C@H]1CCCc3cccnc31)C2 | > 50 | – |
| > 20 | > 30 | > 30 | > 30 | 49 | 100 | > 30 | 51 | > 33 | 64 | 8.9 | 1.5 | 0.11 | 8.4 | 28 | CN(CCCCN(C[C@H]1Cc2ncccc2CN1)[C@H]1CCCc2cccnc21)C1CCOCC1 | > 50 | IC50 [14]: 0.006 µM; CC50 at 4 h [15]: > 10 µM; IC50 [16]: > 10 µM |
| – | 12 | 7.5 | 4.1 | – | – | > 30 | – | – | – | > 30 | – | – | – | > 30 | NCCCCN(Cc1nc2ccccc2[nH]1)[C@H]1CCCc2cccnc21 [MAVORIXAFOR] | – | concentration at 12 h [17]: 2.2 ng/mL; Vd [18]: 32.2 L/kg; half-life [19]: 3.09 h; bioavailability [20]: 2.54%; AUC [21]: 101 h/ng/mL; AUC [22]: 415 h/ng/mL; bioavailability [23]: 2.42%; AUC [24]: 35.1 h/ng/mL |
| 4 | > 30 | 30 | 10 | 0.6 | 96 | – | 69 | – | 49 | 4 | 0.2 | 0.012 | 30 | 1.3 | NCCCCN(C[C@H]1Cc2cccnc2CN1)[C@H]1CCCc2cccnc21 | 5.4 | – |
| 18 | – | – | – | 0.2 | 93 | – | 19 | > 17 | 1 | – | 0.6 | 0.43 | – | – | NC(=O)NC/C=C/CN(C[C@H]1Cc2ncccc2CN1)[C@H]1CCCc2cccnc21 | – | – |

Second part, the compound before the results:

| Structure (SMILES) | IC50 (Cytochrome P450 2D6) [µM] | IC50 (Mu-type opioid receptor) [µM] | IC50 [1] [µM] | IC50 (D(2) dopamine receptor) [µM] | Papp at 4 h [2] [×10⁻⁶ cm/s] | remaining at 10 min [4] [%] | IC50 [5] [µM] | remaining at 10 min [6] [%] | IC50 [7] [µM] | remaining at 10 min [8] [%] | IC50 [9] [µM] | Papp at 4 h [10] [×10⁻⁶ cm/s] | IC50 [11] [µM] | IC50 [12] [µM] | IC50 [13] [µM] | IC50 [3] [µM] | other results |
| --- | --- | --- | --- | --- | --- | --- | --- | --- | --- | --- | --- | --- | --- | --- | --- | --- | --- |
| NCCCCN(C[C@H]1Cc2ncccc2CN1)[C@H]1CCCc2cccnc21 | 12 | > 30 | 8.7 | 9.4 | 1.4 | 100 | 1.7 | 86 | – | 64 | 1.1 | 1.7 | 0.011 | 13 | 11 | 5.8 | – |
| c1cnc2c(c1)CN[C@@H](CN(CCCCN1CCOCC1)[C@H]1CCCc3cccnc31)C2 | > 20 | > 30 | > 30 | > 30 | 83 | 100 | 11 | 20 | > 33 | 39 | > 30 | 1.2 | 0.27 | 20 | 0.62 | 11 | IC50 [14]: > 0.03 µM; CC50 at 4 h [15]: > 10 µM; IC50 [16]: > 10 µM |
| c1cnc2c(c1)CN[C@@H](CN(CCCCNC1COC1)[C@H]1CCCc3cccnc31)C2 | > 20 | 21 | > 17 | > 30 | 30 | 97 | > 30 | 41 | > 33 | 27 | 10.1 | 0.7 | 0.16 | 8.8 | 24 | 11 | IC50 [14]: 0.02 µM; CC50 at 4 h [15]: > 10 µM; IC50 [16]: > 10 µM |
| CCN(CC)CCCCN(C[C@H]1Cc2ncccc2CN1)[C@H]1CCCc2cccnc21 | 10 | – | – | – | 24 | 80 | – | 1 | > 17 | 6 | – | 0.3 | 0.39 | – | – | – | – |
| NCCCCN(C[C@H]1Cc2ccccc2CN1)[C@H]1CCCc2cccnc21 | – | – | – | 5.7 | – | – | > 30 | – | < 30 | – | 1.6 | 0.6 | – | 23 | – | – | – |

— ChEMBL document CHEMBL5046278, “Synthesis and Evaluation of Novel Tetrahydronaphthyridine CXCR4 Antagonists with Improved Drug-like Profiles” (J Med Chem, 2022)
